Assay [1] concerns Leishmania donovani axenic amastigote parasites. Nature of the assay: Leishmania donovani axenic amastigote proliferation assay (Cell TiterGlo luminescence, 2 day incubation). The assay is classed as cell-based. The conditions noted are these: Leishmania donovani, read-out: L. donovani amastigotes EC50.
The subject of assay [2] is L. donovani HU3 strain in mouse peritoneal macrophages. Kind of assay: Assay for proliferation of Leishmania parasites in infected mouse peritoneal macrophages (SybrGreen staining, high-content imaging, 5 days). The settings on record: L. donovani in mouse peritoneal macrophages, read-out: L. donovani Macrophage EC50. The assay is classed as cell-based, Leishmania donovani.

The mark [3] stands for this setting: axenic amastigotes, inhibition of proliferation.
Where [4] appears, read: Leishmania donovani, Peritoneal macrophage, inhibition of proliferation.
[5] abbreviates: Leishmania donovani, Peritoneal macrophage.

This passage reports EC50 results from US20160045505A1, “COMPOUNDS AND COMPOSITIONS FOR THE TREATMENT OF PARASITIC DISEASES” (NOVARTIS AG, priority 2013, published 2016).

Like-named read-outs stand apart in the source and are kept apart here.

`Cc1nc(C)c(C(=O)Nc2ccc(F)c(-c3cn4cc(-c5cnoc5)cnc4n3)c2)o1` [Compound 367]: the EC50 is greater than 25 µM in assay [1] (setting [3]) and greater than 50 µM in assay [2] (setting [4]).
Taken in the same sequence, the figures for `CCN(CC)C(=O)Nc1ccc(Cl)c(-c2cn3cc(NC(=O)OC(C)C)cnc3n2)c1` [Compound 274] were 0.862 µM and 1.9 µM.
For the compound `CC(C)OC(=O)Nc1cnc2nc(-c3cc([N+](=O)[O-])ccc3F)cn2c1` [Compound 19, isopropyl (2-(2-fluoro-5-nitrophenyl)imidazo[1,2-a]pyrimidin-6-yl)carbamate], the EC50 worked out at 19.1 µM in assay [1] (setting [3]) and 46.9 µM in assay [2] (setting [4]).
Turning to `CC(C)OC(=O)NCc1cnc2nc(-c3cc(NC(=O)c4ccc(F)o4)ccc3F)cn2c1` [Compound 207], the values for the EC50 in assay [1] (setting [3]) and in assay [2] (setting [4]) were 7.14 µM and greater than 40.3 µM, respectively.
On the same counts, the results for `CC(C)OC(=O)Nc1cnc2nc(-c3cccc(NC(=O)N4CCCC4)c3)cn2c1` [Compound 5] are 1.08 µM and 4 µM.
For `CON(C)C(=O)Nc1cccc(-c2cn3cc(NC(=O)OC(C)C)cnc3n2)c1` [Compound 14], the EC50 in assay [2] (inhibition of proliferation) is 3.2 µM.
On to `Cc1nc(C)c(C(=O)Nc2ccc(F)c(-c3cn4cc(NC(=O)OC(C)C)cnc4n3)c2)o1` [Compound 61], for which the values for the EC50 in assay [1] (setting [3]) and in assay [2] (setting [4]) were 0.245 µM and 0.715 µM, respectively.
Turning to `CN(CC(F)(F)F)C(=O)Nc1ccc(F)c(-c2cn3cc(-c4ccccc4)cnc3n2)c1` [Compound 325], the results for the EC50 in assay [1] (setting [3]) and in assay [2] (setting [4]) were 0.154 µM and 0.722 µM, respectively.
On the same counts, the results for `CC(C)OC(=O)Nc1cnc2nc(-c3cc(NC(=O)c4cccn4C)ccc3F)cn2c1` [Compound 73] are 1.29 µM and 15.2 µM.
On the same counts, the results for `CC(C)OC(=O)Nc1cnc2nc(-c3cc(NC(=O)c4cnc(N)o4)ccc3F)cn2c1` [Compound 94] are greater than 25 µM and greater than 50 µM.
As for `CC(C)OC(=O)Nc1cnc2nc(-c3cc(NC(=O)N4CCCC4)ccc3F)cn2c1` [Compound 17], the EC50 in assay [1] (setting [3]) was 0.41 µM; in assay [2] (setting [4]), 0.35 µM.
As for `Cc1nc(C)c(C(=O)Nc2ccc(F)c(-c3cn4cc(C5C6CCCC5C6)cnc4n3)c2)o1` (centres unmarked) [Compound 615], in assay [1] (L. donovani axenic amastigotes), the EC50 turned out to be 0.082 µM.
Turning to `CC(C)OC(=O)Nc1cnc2nc(-c3cccc(NC(=O)c4ccco4)c3)cn2c1` [Compound 8], the EC50 in assay [1] (setting [3]) stood at 1.59 µM; in assay [2] (setting [4]) it was 4.7 µM.
Regarding `Cc1nc(C)c(C(=O)Nc2ccc(F)c(-c3cn4cc(CC5OCCO5)cnc4n3)c2)o1` [Compound 614], the EC50 was 0.389 µM in assay [1] (L. donovani axenic amastigotes) and greater than 50 µM in assay [2] (setting [5]).
For the compound `CC(C)OC(=O)Nc1cnc2nc(-c3cc(NC(=O)c4ccc(Cl)o4)ccc3F)cn2c1` [Compound 64, isopropyl (2-(5-(5-chlorofuran-2-carboxamido)-2-fluorophenyl)imidazo[1,2-a]pyrimidin-6-yl)carbamate], the EC50 in assay [1] (setting [3]) turned out to be 0.161 µM; in assay [2] (setting [4]), 0.469 µM.
With `CC(C)OC(=O)Nc1cnc2nc(-c3cc(NC(=O)c4cocn4)ccc3F)cn2c1` [Compound 65], the concentration giving a half-maximal response (EC50) in assay [1] (setting [3]) worked out at 2.04 µM; in assay [2] (setting [4]), 9.13 µM.
On to `Cc1nc(C)c(C(=O)Nc2ccc(F)c(-c3cn4cc(C(C)N5CCOCC5)cnc4n3)c2)o1` (centres unmarked) [Compound 618, N-(4-fluoro-3-(6-(1-morpholinoethyl)imidazo[1,2-a]pyrimidin-2-yl)phenyl)-2,4-dimethyloxazole-5-carboxamide], for which the EC50 in assay [1] (L. donovani axenic amastigotes) turned out to be 0.903 µM; in assay [2] (setting [5]) it was 0.691 µM.
With `CC(C)OC(=O)Nc1cnc2nc(-c3cc(NC(=O)N(C)C)ccc3F)cn2c1` [Compound 219], the EC50 in assay [1] (setting [3]) came out at 0.752 µM; in assay [2] (setting [4]) it was 2.15 µM.
Regarding `CCNC(=O)Nc1ccc(Cl)c(-c2cn3cc(NC(=O)OC(C)C)cnc3n2)c1` [Compound 254], the EC50 in assay [1] (setting [3]) is 6.9 µM; in assay [2] (setting [4]) it was greater than 18.3 µM.
With `Cc1nc(C)c(C(=O)Nc2ccc(F)c(-c3cn4cc(-c5ncccc5C(F)F)cnc4n3)c2)o1` [Compound 588], the EC50 in assay [1] (L. donovani axenic amastigotes) was determined as 0.019 µM; in assay [2] (setting [5]) it was 0.459 µM.
For `Cc1ncc(C(=O)Nc2ccc(F)c(-c3cn4cc(NC(=O)OC(C)C)cnc4n3)c2)o1` [Compound 95], the figures for the EC50 in assay [1] (setting [3]) and in assay [2] (setting [4]) were 0.069 µM and 0.188 µM, respectively.
In the case of `COCCOC(=O)Nc1cccc(-c2cn3cc(NC(=O)OC(C)C)cnc3n2)c1` [Compound 23], the EC50 in assay [1] (setting [3]) turned out to be 7.3 µM; in assay [2] (setting [4]), 24.7 µM.
On the same counts, the results for `CC(C)OC(=O)Nc1cnc2nc(-c3cc(NC(=O)N4CCCC4)ccc3Cl)c(F)n2c1` [Compound 15, isopropyl (2-(2-chloro-5-(pyrrolidine-1-carboxamido)phenyl)-3-fluoroimidazo[1,2-a]pyrimidin-6-yl)carbamate] are 1.5 µM and 2.95 µM.
Taken in the same sequence, the figures for `O=C(Nc1ccc(Cl)c(-c2cn3cc(-c4ccccc4)cnc3n2)c1)N1CCCC1` [Compound 29] were 0.036 µM and 0.152 µM.
On the same counts, the results for `CC(C)OC(=O)Nc1cnc2nc(-c3cc(NC(=O)c4cnc(Br)s4)ccc3F)cn2c1` [Compound 91] are 4.61 µM and 24.1 µM.
In the case of `CC(C)OC(=O)Nc1cnc2nc(-c3cc(NC(=O)c4cc5cc(Cl)ccc5[nH]4)ccc3F)cn2c1` [Compound 89], the figures for the EC50 in assay [1] (setting [3]) and in assay [2] (setting [4]) were greater than 25 µM and greater than 50 µM, respectively.
On the same counts, the results for `CC(C)OC(=O)Nc1cnc2nc(-c3cc(NC(=O)N4CC(S(C)(=O)=O)C4)ccc3F)cn2c1` [Compound 292] are greater than 25 µM and greater than 43.5 µM.
In the case of `O=C(Nc1ccc(F)c(-c2cn3cc(-c4ccnc(C(F)(F)F)c4)cnc3n2)c1)N1CCCC1` [Compound 341], the figures for the EC50 in assay [1] (setting [3]) and in assay [2] (setting [4]) were 2.6 µM and 9.43 µM, respectively.
Taken in the same sequence, the figures for `CC(C)OC(=O)Nc1cnc2nc(-c3cc(NC(=O)c4ccno4)ccc3F)cn2c1` [Compound 72] were 0.764 µM and 8.39 µM.
Taken in the same sequence, the figures for `CC(C)OC(=O)Nc1ccc(-c2cnc3nc(-c4cc(NC(=O)N5CCCC5)ccc4F)cn3c2)cc1` [Compound 340] were 0.707 µM and 2.12 µM.
For `Cc1nc(C)c(C(=O)Nc2ccc(F)c(-c3cn4cc(CN5CCOCC5)cnc4n3)c2)o1` [Compound 616, N-(4-fluoro-3-(6-(morpholinomethyl)imidazo[1,2-a]pyrimidin-2-yl)phenyl)-2,4-dimethyloxazole-5-carboxamide], the EC50 is 0.602 µM in assay [1] (L. donovani axenic amastigotes) and greater than 50 µM in assay [2] (setting [5]).
Taken in the same sequence, the figures for `O=C(Nc1ccc(F)c(-c2cn3cc(C(F)(F)F)cnc3n2)c1)N1CC(F)C1` [Compound 587, 3-fluoro-N-(4-fluoro-3-(6-(trifluoromethyl)imidazo[1,2-a]pyrimidin-2-yl)phenyl)azetidine-1-carboxamide] were 0.073 µM and 0.647 µM.
As for `Cc1nc(C)c(C(=O)Nc2ccc(F)c(-c3cn4cc(CN(C)C)cnc4n3)c2)o1` [Compound 617], in assay [1] (L. donovani axenic amastigotes), the EC50 worked out at 3.44 µM.
On to `Cc1nc(C(=O)Nc2ccc(F)c(-c3cn4cc(NC(=O)OC(C)C)cnc4n3)c2)c(C)o1` [Compound 62], for which the EC50 was 2 µM in assay [1] (setting [3]) and 11.6 µM in assay [2] (setting [4]).
On to `CC(C)OC(=O)Nc1cnc2nc(-c3cc(NC(=O)c4cc5cccc(F)c5[nH]4)ccc3F)cn2c1` [Compound 93], for which the EC50 was greater than 25 µM in assay [1] (setting [3]) and greater than 50 µM in assay [2] (setting [4]).
As for `CC1=C(C(=O)Nc2cnc3nc(-c4cc(NC(=O)N5CCCC5)ccc4F)cn3c2)OCCO1` [Compound 122], the EC50 in assay [1] (setting [3]) came out at 0.08 µM.
